# Data: article PMC12323131, “CSRP2 promotes the glioblastoma mesenchymal phenotype via p130Cas-mediated NF-κB and MAPK pathways” (Journal of Experimental & Clinical Cancer Research : CR, 2025)
# Target: T1, CSRP2 recombinant protein (Homo sapiens, UniProt Q16527)
# T1 construct: labelled with RED-NHS dye
# T1 sequence (Q16527 1-193): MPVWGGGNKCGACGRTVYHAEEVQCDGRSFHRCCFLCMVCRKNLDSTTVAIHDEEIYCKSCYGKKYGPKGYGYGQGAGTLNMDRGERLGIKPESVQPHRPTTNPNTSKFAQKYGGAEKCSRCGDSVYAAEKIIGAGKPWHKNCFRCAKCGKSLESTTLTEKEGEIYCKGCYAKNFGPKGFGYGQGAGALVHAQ
# Assay: microscale thermophoresis
# Format: binding
structure (smiles),measurement,value
O=C1c2c(O)ccc(O)c2C(=O)c2c(NCCNCCO)ccc(NCCNCCO)c21 [Mitoxantrone],Kd,370 nM
